Some results are limits rather than exact numbers.

The assay concerns the target T1, Androgen Receptor dual T878A/L702H mutant protein (Homo sapiens, UniProt P10275, L702H/T878A).
T1 construct: host or cells: MDA-PCa-2b
T1 sequence (P10275 1-920 L702H/T878A): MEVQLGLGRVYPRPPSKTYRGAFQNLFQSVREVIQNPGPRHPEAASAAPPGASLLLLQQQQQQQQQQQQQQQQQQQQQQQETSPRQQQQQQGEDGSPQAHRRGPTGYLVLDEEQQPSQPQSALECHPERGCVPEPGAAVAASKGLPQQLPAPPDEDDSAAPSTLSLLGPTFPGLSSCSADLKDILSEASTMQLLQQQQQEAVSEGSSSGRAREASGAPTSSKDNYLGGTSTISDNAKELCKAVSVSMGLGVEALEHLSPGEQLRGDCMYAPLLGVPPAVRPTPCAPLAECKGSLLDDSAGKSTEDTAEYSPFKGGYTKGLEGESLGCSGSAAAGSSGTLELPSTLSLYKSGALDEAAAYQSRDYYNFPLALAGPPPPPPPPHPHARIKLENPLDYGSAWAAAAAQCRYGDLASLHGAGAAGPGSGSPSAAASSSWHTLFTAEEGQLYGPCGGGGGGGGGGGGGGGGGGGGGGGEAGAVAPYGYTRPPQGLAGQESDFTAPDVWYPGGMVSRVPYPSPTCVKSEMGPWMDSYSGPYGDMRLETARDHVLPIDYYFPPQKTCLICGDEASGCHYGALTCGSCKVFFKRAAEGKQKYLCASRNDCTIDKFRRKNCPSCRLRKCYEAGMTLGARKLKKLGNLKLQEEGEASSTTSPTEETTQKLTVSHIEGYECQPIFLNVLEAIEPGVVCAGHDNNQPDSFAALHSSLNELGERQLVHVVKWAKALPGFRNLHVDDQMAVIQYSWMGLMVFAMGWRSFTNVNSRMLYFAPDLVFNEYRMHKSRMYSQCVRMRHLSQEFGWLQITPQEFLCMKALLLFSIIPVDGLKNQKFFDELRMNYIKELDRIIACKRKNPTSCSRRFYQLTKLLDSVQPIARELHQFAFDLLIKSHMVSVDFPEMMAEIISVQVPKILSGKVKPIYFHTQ
Put plainly: Dual Mutant (T878A/L702H) Androgen Receptor Degradation Assay (HTRF, MDA-PCa-2b cells). The format is cell-based. As to conditions: 18 h, 18 h incubation, read-out: mean asymptote max. How it is done:
Degradation of Androgen Receptor dual T878A/L702H mutant protein in human MDA-PCa-2b (ATCC) cells treated with PROTACs was quantified using the HTRF Human Androgen Receptor Detection Kit (PerkinElmer) in 384 well assay plate format. 10 mM DMSO (Sigma-Aldrich) stock solutions of PROTACs were prepared and diluted across an 11 concentration, 3-fold increment range, and 25 nL dispensed into a white opaque bottomed 384 well assay plate (Thermofisher) using an acoustic ECHO dispenser (Labcyte). Cells were cultured in growth medium (BRFF—HPC-1 (Athena ES) supplemented with 20% FBS (Gibco), penicillin 50U/mL and streptomycin 50 μg/mL (Gibco, #15140-122)) in collagen I or poly-D-lysine coated T175 flasks (Corning, #356487 or #356539, respectively). For the assay, cells were harvested from the flask, centrifuged at 200 g for 5 min and then resuspended in the growth medium. 25 μl of cell suspension containing 10,000 cells was dispensed into each well of the assay plate containing the test compounds, which was then incubated for 18 h at 37° C./5% CO2. Control wells were included on each assay plate, with assay medium without cells being the no AR remaining 100% effect control, and cells treated with DMSO vehicle only, without PROTAC, the 0% effect control. After 18 h incubation 8 μl of supplemented lysis buffer from HTRF kit was added to each well and the plate shaken at 500 rpm for 1 h at room temperature. 8 μl of antibody mix in Detection buffer from HTRF kit was added to each well and the plate was incubated for 2 h in dark at mom temperature. The fluorescence was measured at both 620 nm and 665 nm using an excitation wavelength of 337 nm with a PHERAstar microplate reader (BMG Labtech) and the % AR protein remaining in each well was calculated by normalising the HTRF ratio (665 nm signal/620 nm signal) value to the control wells mentioned above. Parameters corresponding to the potency and efficacy estimates of the PROTACs were obtained from these normalised values using curve fitting software (IDBS ActivityBase). These included the DC50 and the Dmax estimates. Two versions of the DC50, called relative DC50 and absolute DC50, were typically generated. These are the inflection point of a fitted 4 parameter sigmoidal response curve and the interpolated concentration of PROTAC corresponding to 50% of the protein being degraded, respectively. The Dmax parameter was the maximum experimentally observed degradation and the asymptote max parameter the fitted response curve asymptote maximum.
For orientation: Time-resolved FRET reads energy transfer from a long-lived donor to a nearby acceptor.
As to `CC1(C)[C@H](NC(=O)c2ccc(N3CCC(CN4CCC(n5ccc6c(N7CCC(=O)NC7=O)c(F)ccc65)CC4)CC3)c(F)c2)C(C)(C)[C@H]1Oc1ccc(C#N)c(Cl)c1` [Example 12, N-((1r,3r)-3-(3-Chloro-4-cyanophenoxy)-2,2,4,4-tetramethylcyclobutyl)-4-(4-((4-(4-(2,4-dioxotetrahydropyrimidin-1(2H)-yl)-5-fluoro-1H-indol-1-yl)piperidin-1-yl)methyl)piperidin-1-yl)-3-fluorobenzamide], the Dmax was no less than 50%. Then `CC1(C)[C@H](NC(=O)c2ccc(N3CCC(CN4CC[C@H](n5ncc6c(N7CCC(=O)NC7=O)cccc65)C4)CC3)c(F)c2)C(C)(C)[C@H]1Oc1ccc(C#N)c(Cl)c1` [Example 10, N-((1r,3r)-3-(3-Chloro-4-cyanophenoxy)-2,2,4,4-tetramethylcyclobutyl)-4-(4-(((S)-3-(4-(2,4-dioxotetrahydropyrimidin-1(2H)-yl)-1H-indazol-1-yl)pyrrolidin-1-yl)methyl)piperidin-1-yl)-3-fluorobenzamide], with no less than 50%. Regarding `CC1(C)[C@H](NC(=O)c2ccc(N3CCC(CN4CCC(n5ncc6c(N7CCC(=O)NC7=O)cccc65)CC4)CC3)c(F)c2)C(C)(C)[C@H]1Oc1ccc(C#N)c(Cl)c1` [Example 1, N-((1r,3r)-3-(3-Chloro-4-cyanophenoxy)-2,2,4,4-tetramethylcyclobutyl)-4-(4-((4-(4-(2,4-dioxotetrahydropyrimidin-1(2H)-yl)-1H-indazol-1-yl)piperidin-1-yl)methyl)piperidin-1-yl)-3-fluorobenzamide], the Dmax is no less than 50%.

For the compound `CC1(C)[C@H](NC(=O)c2ccc(N3CCC(CN4CCC(n5ncc6c(N7CCC(=O)NC7=O)cccc65)CC4)CC3)c(F)c2)C(C)(C)[C@H]1Oc1ccc(C#N)c2c1CCO2` [Example 9, N-((1r,3r)-3-((7-Cyano-2,3-dihydrobenzofuran-4-yl)oxy)-2,2,4,4-tetramethylcyclobutyl)-4-(4-((4-(4-(2,4-dioxotetrahydropyrimidin-1(2H)-yl)-1H-indazol-1-yl)piperidin-1-yl)methyl)piperidin-1-yl)-3-fluorobenzamide], the Dmax was no less than 50%. Turning to `COc1cc(O[C@H]2C(C)(C)[C@H](NC(=O)c3ccc(N4CCC(CN5CCC(n6ccc7c(N8CCC(=O)NC8=O)cccc76)CC5)CC4)c(F)c3)C2(C)C)ccc1C#N` [Example 22, N-((1r,3r)-3-(4-Cyano-3-methoxyphenoxy)-2,2,4,4-tetramethylcyclobutyl)-4-(4-((4-(4-(2,4-dioxotetrahydropyrimidin-1(2H)-yl)-1H-indol-1-yl)piperidin-1-yl)methyl)piperidin-1-yl)-3-fluorobenzamide], the Dmax was no less than 50%. Then `CCOc1cc(O[C@H]2C(C)(C)[C@H](NC(=O)c3ccc(N4CCC(CN5CCC(n6ncc7c(N8CCC(=O)NC8=O)cccc76)CC5)CC4)c(F)c3)C2(C)C)ccc1C#N` [Example 4, N-((1r,3r)-3-(4-Cyano-3-ethoxyphenoxy)-2,2,4,4-tetramethylcyclobutyl)-4-(4-((4-(4-(2,4-dioxotetrahydropyrimidin-1(2H)-yl)-1H-indazol-1-yl)piperidin-1-yl)methyl)piperidin-1-yl)-3-fluorobenzamide], with no less than 50%.

In the case of `CC1(C)[C@H](NC(=O)c2ccc(N3CCC(CN4CCC(n5ncc6c(N7CCC(=O)NC7=O)cccc65)CC4)CC3)cc2)C(C)(C)[C@H]1Oc1ccc(C#N)c2ncccc12` [Example 29, N-((1r,3r)-3-((8-Cyanoquinolin-5-yl)oxy)-2,2,4,4-tetramethylcyclobutyl)-4-(4-((4-(4-(2,4-dioxotetrahydropyrimidin-1(2H)-yl)-1H-indazol-1-yl)piperidin-1-yl)methyl)piperidin-1-yl)benzamide], the Dmax is no less than 50%. Consider `COc1cc(O[C@H]2C(C)(C)[C@H](NC(=O)c3ccc(N4CCC(CN5CC[C@H](n6ncc7c(N8CCC(=O)NC8=O)cccc76)[C@H](F)C5)CC4)c(F)c3)C2(C)C)ccc1C#N` [Example 26, N-((1r,3r)-3-(4-Cyano-3-methoxyphenoxy)-2,2,4,4-tetramethylcyclobutyl)-4-(4-(((3R,4S)-4-(4-(2,4-dioxotetrahydropyrimidin-1(2H)-yl)-1H-indazol-1-yl)-3-fluoropiperidin-1-yl)methyl)piperidin-1-yl)-3-fluorobenzamide], for which the Dmax is no less than 50%. For `CC1(C)[C@H](NC(=O)c2cc(F)c(N3CCC(CN4CCC(n5ncc6c(N7CCC(=O)NC7=O)cccc65)CC4)CC3)cc2F)C(C)(C)[C@H]1Oc1ccc(C#N)c2ncccc12` [Example 35, N-((1r,3r)-3-((8-Cyanoquinolin-5-yl)oxy)-2,2,4,4-tetramethylcyclobutyl)-4-(4-((4-(4-(2,4-dioxotetrahydropyrimidin-1(2H)-yl)-1H-indazol-1-yl)piperidin-1-yl)methyl)piperidin-1-yl)-2,5-difluorobenzamide], the Dmax was no less than 50%. For `Cc1c(O[C@H]2C(C)(C)[C@H](NC(=O)c3ccc(N4CCC(CN5CCC(n6ncc7c(N8CCC(=O)NC8=O)cccc76)CC5)CC4)c(F)c3)C2(C)C)ccc(C#N)c1Cl` [Example 2, N-((1r,3r)-3-(3-Chloro-4-cyano-2-methylphenoxy)-2,2,4,4-tetramethylcyclobutyl)-4-(4-((4-(4-(2,4-dioxotetrahydropyrimidin-1(2H)-yl)-1H-indazol-1-yl)piperidin-1-yl)methyl)piperidin-1-yl)-3-fluorobenzamide] the value was no less than 50%. Consider `COc1cc(O[C@H]2C(C)(C)[C@H](NC(=O)c3ccc(N4CCC(CN5CCC(n6ncc7c(N8CCC(=O)NC8=O)cccc76)CC5)CC4)c(F)c3)C2(C)C)ccc1C#N` [Example 21, N-((1r,3r)-3-(4-Cyano-3-methoxyphenoxy)-2,2,4,4-tetramethylcyclobutyl)-4-(4-((4-(4-(2,4-dioxotetrahydropyrimidin-1(2H)-yl)-1H-indazol-1-yl)piperidin-1-yl)methyl)piperidin-1-yl)-3-fluorobenzamide], for which the Dmax is no less than 50%. For `COc1cc(O[C@H]2C(C)(C)[C@H](NC(=O)c3ccc(N4CCC(CN5CCC(n6ccc7c(N8CCC(=O)NC8=O)c(F)ccc76)CC5)CC4)c(F)c3)C2(C)C)ccc1C#N` [Example 23, N-((1r,3r)-3-(4-Cyano-3-methoxyphenoxy)-2,2,4,4-tetramethylcyclobutyl)-4-(4-((4-(4-(2,4-dioxotetrahydropyrimidin-1(2H)-yl)-5-fluoro-1H-indol-1-yl)piperidin-1-yl)methyl)piperidin-1-yl)-3-fluorobenzamide], the Dmax was no less than 50%.

For the compound `CC1(C)[C@H](NC(=O)c2ccc(N3CCC(CN4CCC(n5ncc6c(N7CCC(=O)NC7=O)cc(F)cc65)CC4)CC3)c(F)c2)C(C)(C)[C@H]1Oc1ccc(C#N)c(Cl)c1` [Example 11, N-((1r,3r)-3-(3-Chloro-4-cyanophenoxy)-2,2,4,4-tetramethylcyclobutyl)-4-(4-((4-(4-(2,4-dioxotetrahydropyrimidin-1(2H)-yl)-6-fluoro-1H-indazol-1-yl)piperidin-1-yl)methyl)piperidin-1-yl)-3-fluorobenzamide], the Dmax was no less than 50%.

For the origin of these results see patent US12577231B2, “Androgen receptor PROTACS” (GlaxoSmithKline Intellectual Property Development Limited, priority 2023, dated 2026).
